Values joined by “and” are separate entries in the source; they are usually repeats but may differ in a detail not shown here. Equal values may be shown once. “Also recorded” adds a separate entry of the source. Read-outs that look alike come from different tables or passages of the source.
Key:
[1] = system: Striga hermonthica seeds; assay: Striga hermonthica germination bioassay; type: in vivo
Experimental: Striga hermonthica seeds were collected from Sorghum bicolor field in Sudan. For germination bioassays, Striga seeds were first sterilized and pre‐conditioned as described before 31. […] Triton X‐100/GR24 mixtures were applied (50 μl per disk) in four replicates. Corresponding volumes of GR24 and sterile MiliQ water were included as positive and negative control, respectively. The petri dishes were sealed with parafilm, enfolded with aluminum foil, and incubated for 48 h at 30°C. The germinated (seeds with radicle emerging through the seed coat) and non‐germinated Striga seeds were recorded under a binocular, and germination percentage was calculated.

[2] = target: T1, ShHTL7 (Striga hermonthica, UniProt A0A0M3PNA2); assay: Intrinsic Triton fluorescence binding assay
T1 sequence (A0A0M3PNA2 1-271): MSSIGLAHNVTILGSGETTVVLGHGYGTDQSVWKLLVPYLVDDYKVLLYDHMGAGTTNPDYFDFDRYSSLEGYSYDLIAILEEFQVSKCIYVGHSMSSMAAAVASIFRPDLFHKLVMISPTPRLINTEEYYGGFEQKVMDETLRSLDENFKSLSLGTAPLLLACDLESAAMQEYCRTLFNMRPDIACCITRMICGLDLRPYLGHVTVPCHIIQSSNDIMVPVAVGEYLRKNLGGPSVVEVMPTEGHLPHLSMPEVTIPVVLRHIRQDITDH
Experimental: (§1) Triton X‐100 has an excitation and emission wavelength of 275 and 302 nm, respectively. ShHTL7, ShHTL7‐L143Y, AtD14, and OsD14 were incubated in 50 mM Tris–HCl pH 7.5, 150 mM NaCl, with or without 0.005% Tween‐20, at concentrations ranging from 10 μM to 1 nM (obtained using serial dilutions) with 154 nM of Triton X‐100 for 1–2 h, and fluorescence values were then measured by SpectraMax i3 (Molecular Devices) at excitation and detection wavelengths of 275 and 302 nm, respectively. […] Data were normalized to the background fluorescence from the protein to obtain the change in Triton X‐100 fluorescence intensity. To determine the K d, the changes in Triton X‐100 fluorescence intensity were plotted against the concentration of the protein using the single binding site model implemented in GraphPad (Prism 6).

[3] = target: T2, AtD14 (Arabidopsis thaliana, UniProt Q9SQR3); assay: Intrinsic Triton fluorescence binding assay; conditions: up to 5 μM of AtD14
T2 construct: made in house; host or cells: E. coli BL21 (DE3)
T2 sequence (Q9SQR3 1-267): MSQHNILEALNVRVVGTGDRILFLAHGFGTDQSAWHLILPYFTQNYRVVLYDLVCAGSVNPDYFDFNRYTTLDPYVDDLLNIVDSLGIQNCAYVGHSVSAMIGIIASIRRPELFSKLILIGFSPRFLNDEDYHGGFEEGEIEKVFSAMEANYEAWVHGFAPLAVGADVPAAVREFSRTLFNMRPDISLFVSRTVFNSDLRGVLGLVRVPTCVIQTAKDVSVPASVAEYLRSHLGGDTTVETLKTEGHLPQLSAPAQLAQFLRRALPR
Experimental: as §1

[4] = target: T3, OsD14 (Oryza sativa subsp. japonica, UniProt Q10QA5); assay: Intrinsic Triton fluorescence binding assay; conditions: up to 5 μM of OsD14
T3 construct: made in house; host or cells: E. coli BL21 (DE3)
T3 sequence (Q10QA5 1-318): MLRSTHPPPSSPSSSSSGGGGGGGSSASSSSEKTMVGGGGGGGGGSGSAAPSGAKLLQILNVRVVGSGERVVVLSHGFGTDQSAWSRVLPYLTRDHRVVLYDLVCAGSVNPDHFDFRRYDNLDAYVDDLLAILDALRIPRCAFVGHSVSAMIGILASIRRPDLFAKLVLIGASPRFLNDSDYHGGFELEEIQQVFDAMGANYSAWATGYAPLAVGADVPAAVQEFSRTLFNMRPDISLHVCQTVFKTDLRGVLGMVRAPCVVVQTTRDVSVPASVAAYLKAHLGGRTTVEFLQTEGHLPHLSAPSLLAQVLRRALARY
Experimental: as §1

[5] = target: T1, ShHTL7; assay: Differential static light scattering (DSLS), aggregation temperature; type: binding
Experimental: The specific aggregation temperature, T agg, at which ShHTL7, ShHTL7L143Y, AtD14, and OsD14 aggregated in the presence or absence of Triton X‐100, GR24, and PAA was measured using DSLS on the Stargazer system (Harbinger Biotechnology and Engineering Corporation, Markham, Canada). Protein samples at a concentration of 10 μM were overlaid with mineral oil in a clear bottom 384‐well black plate (Corning) and heated from 20 to 95°C at 1°C/min; light scattering was detected by a CCD camera every 0.5°C in the presence or absence of varying concentrations of Triton X‐100, GR24, and PAA yielding the difference in aggregation temperature at a particular concentration from apoproteins (ΔT agg). Data were normalized, and ΔT agg plotted against the Triton X‐100, GR24, and PAA concentration. Resulting data were plotted to determine the change in T agg of all proteins when bound to Triton X‐100, GR24, and PAA using GraphPad (Prism 6).

[6] = system: GR24‐dependent interaction of ShHTL7 with ShMAX2; assay: GST pulldown of ShMAX2; type: biochemical, Striga hermonthica; conditions: pre‐incubation of ShHTL7 with Triton; 20 μM GR24
Experimental: (§2) Purified GST‐ShHTL7 wt, ShHTL7 L143Y, and ShHTL7‐H246N mutants were bound to the Glutathione Sepharose 4B Beads, where Triton is used in the lysis step and in certain samples Tween‐20 was used instead of Triton. Bound proteins were incubated with 20 μM GR24 and His6‐ShMAX2 lysate for 2 h and then washed with lysis buffer for three times and then ShHTL7 wt and mutants were eluted with the addition of 20 mM reduced glutathione. Thus, eluted protein was subjected to Western blot using antibody specific to 6XHis (anti‐His).

[7] = system: ShHTL7 L143Y binding to ShMAX2; assay: GST pulldown of ShMAX2; type: biochemical, Striga hermonthica
Experimental: as §2

[8] = target: ShHTL7S95C; assay: Intrinsic Triton fluorescence binding assay; parameters: species or system Striga hermonthica; conditions: inactive ShHTL7S95C; buffer with 0.005% Tween‐20; converged after 2.5 h of incubation; read-out: dissociation constant (Kd), intrinsic Triton fluorescence

With Triton X-100 the “reduction in GR24‐induced germination” value ([1]; 15 μM Triton, GR24 0.125–1 nM, 2 days) was ~ 50% and 50%, the “reduction of Striga germination by Triton” value ([1]; in vivo) was “up to 50%” and the “Kd for the Triton-ShHTL7 association” value ([2]; across methods and buffers (authors' reply in peer review file)) was ~ 250 nM. For the same substance, the Kd ([2]; in the absence of Tween‐20, read-out: final Kd, intrinsic Triton fluorescence) was 233 ± 30 nM, the Kd ([2]; wild-type ShHTL7, buffer with 0.005% Tween‐20, converged after 2.5 h of incubation, read-out: dissociation constant (Kd), intrinsic Triton fluorescence) was 284 ± 22 nM and the “change of Triton fluorescence in presence of protein” value [3] was “did not change”. The “change of Triton fluorescence in presence of protein” value [4] was “did not change”, the “effect on ShHTL7 aggregation temperature (T agg)” value ([5]; 10 μM protein, varying compound concentrations) was “increases; also recorded: stabilized” and the “effect of Triton pre‐incubation on GR24-induced T agg changes in ShHTL7” value ([5]; pre‐incubation with Triton, then GR24) was “efficiently blocked”. For the same substance, the “effect on GR24‐dependent interaction of ShHTL7 with ShMAX2” value [6] was “inhibited”, the “inhibition of ShMAX2 binding of ShHTL7 L143Y” value [7] was “did not inhibit” and the Kd [8] was 195 ± 21 nM.
